Laboratory results from ChEMBL document CHEMBL1201862, “PubChem BioAssay data set” (2004).
Values belong to the compound of their own block, whether it stands above or below them. Activity calls are given as the source filed them.

Key:
Format in all cases: functional
Protein skinhead-1 = molecular target: T1, Protein skinhead-1 (Caenorhabditis elegans, UniProt P34707)
T1 sequence (P34707 whole entry): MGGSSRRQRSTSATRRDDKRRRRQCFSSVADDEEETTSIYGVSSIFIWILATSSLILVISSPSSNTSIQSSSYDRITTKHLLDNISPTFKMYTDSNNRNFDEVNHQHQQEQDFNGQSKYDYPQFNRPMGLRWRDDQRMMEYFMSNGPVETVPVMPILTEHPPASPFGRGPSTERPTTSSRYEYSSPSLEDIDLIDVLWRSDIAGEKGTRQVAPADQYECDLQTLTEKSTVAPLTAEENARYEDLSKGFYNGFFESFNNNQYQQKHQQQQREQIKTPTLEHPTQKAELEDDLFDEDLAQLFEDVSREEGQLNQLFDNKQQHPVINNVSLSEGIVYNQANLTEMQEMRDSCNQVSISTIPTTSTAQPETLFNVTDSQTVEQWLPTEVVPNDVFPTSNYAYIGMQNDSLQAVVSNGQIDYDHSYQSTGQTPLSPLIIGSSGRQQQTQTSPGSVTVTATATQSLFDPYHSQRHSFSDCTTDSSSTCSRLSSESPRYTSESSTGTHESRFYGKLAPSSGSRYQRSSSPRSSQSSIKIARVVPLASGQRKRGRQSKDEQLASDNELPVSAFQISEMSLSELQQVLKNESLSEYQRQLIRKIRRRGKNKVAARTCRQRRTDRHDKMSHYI

[1] = intracellular Trypanosoma cruzi inhibitors in host cells – cell-based, plate reader, cherry-pick samples, set 3, dose response (AID 651818);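 note: compounds incubated with infected cells for about four days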
[2] = molecular target: T2, Ubiquitin-conjugating enzyme E2 N (Homo sapiens, UniProt P61088);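 note: Dose-response confirmation in a TR-FRET assay detecting UBC13-driven polyubiquitin chain formation, inhibition measured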
T2 sequence (P61088 whole entry): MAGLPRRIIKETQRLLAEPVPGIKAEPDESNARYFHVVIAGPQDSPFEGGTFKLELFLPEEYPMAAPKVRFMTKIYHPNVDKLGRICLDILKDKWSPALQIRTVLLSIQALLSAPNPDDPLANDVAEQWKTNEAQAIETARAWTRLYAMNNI

[3] = molecular target: T3, High affinity choline transporter 1 (Homo sapiens, UniProt Q9GZV3); assay: human choline transporter blockers, potency – cell-based, 5-point CRC, membrane potential dye, dose response (AID 504840)
T3 sequence (Q9GZV3 whole entry): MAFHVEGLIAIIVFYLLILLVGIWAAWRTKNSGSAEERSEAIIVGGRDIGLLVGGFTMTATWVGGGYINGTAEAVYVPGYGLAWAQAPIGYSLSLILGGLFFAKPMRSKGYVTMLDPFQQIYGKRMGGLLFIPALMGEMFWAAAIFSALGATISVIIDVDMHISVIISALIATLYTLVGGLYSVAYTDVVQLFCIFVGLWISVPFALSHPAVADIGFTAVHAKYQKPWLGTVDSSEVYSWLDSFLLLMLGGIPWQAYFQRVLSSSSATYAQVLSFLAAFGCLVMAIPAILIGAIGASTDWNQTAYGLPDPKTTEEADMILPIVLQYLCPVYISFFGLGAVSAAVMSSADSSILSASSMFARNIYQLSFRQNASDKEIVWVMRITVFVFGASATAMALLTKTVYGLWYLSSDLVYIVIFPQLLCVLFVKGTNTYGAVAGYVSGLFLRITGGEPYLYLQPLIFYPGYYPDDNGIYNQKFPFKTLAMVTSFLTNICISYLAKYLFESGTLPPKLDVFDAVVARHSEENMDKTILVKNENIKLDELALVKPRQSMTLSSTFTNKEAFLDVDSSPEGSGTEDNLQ

[4] = molecular target: T4, Heat shock factor protein 1 (Mus musculus, UniProt P38532); assay: decrease of HSF1-responsive luciferase luminescence – cell-based, NIH3T3, dose retest, confirmation (AID 2382);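 note: NIH3T3 fibroblasts with HSF1-driven luciferase reporter stressed by proteasome inhibitor MG132; luminescence from HSF1-driven luciferase expression after 8 hours of MG132 stress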
T4 sequence (P38532 whole entry): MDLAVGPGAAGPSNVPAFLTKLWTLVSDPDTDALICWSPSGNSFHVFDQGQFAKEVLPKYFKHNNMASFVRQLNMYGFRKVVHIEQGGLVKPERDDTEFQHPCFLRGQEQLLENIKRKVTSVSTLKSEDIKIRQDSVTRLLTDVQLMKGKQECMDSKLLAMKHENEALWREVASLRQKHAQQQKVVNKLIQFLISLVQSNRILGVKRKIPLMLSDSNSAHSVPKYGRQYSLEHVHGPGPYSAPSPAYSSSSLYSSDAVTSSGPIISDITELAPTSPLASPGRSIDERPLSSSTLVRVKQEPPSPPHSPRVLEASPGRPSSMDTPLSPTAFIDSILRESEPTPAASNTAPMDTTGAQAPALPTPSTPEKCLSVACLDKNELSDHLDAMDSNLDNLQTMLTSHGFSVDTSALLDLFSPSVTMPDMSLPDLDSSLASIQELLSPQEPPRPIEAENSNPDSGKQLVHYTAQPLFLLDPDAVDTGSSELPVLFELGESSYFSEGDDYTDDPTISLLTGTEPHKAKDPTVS

[5] = reduction of Shn3 3'UTR-driven luciferase in osteoblasts – cell-based, Clone20 osteoblasts, firefly luciferase, cherry-picked, dose response (AID 624132);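 note: firefly luciferase luminescence from reporter carrying the Shn3 3'UTR in osteoblasts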
[6] = non-specific 3'UTR reporter inhibition in Clone20-Shn3RL – cell-based, Renilla luciferase, cherry-picked, counter-screen for Shn3 inhibitor project, dose response (AID 624133)

IC50 (Protein skinhead-1): 6.36 µM (active)
SMILES: Clc1ccc(-c2nc(-c3ccncc3)no2)c(Cl)c1

IC50 (Protein skinhead-1): > 100 µM (inactive)
SMILES: N=c1oc2ccccc2cc1-c1nc(-c2ccccc2)cs1

IC50 [2]: > 20 µM (inactive)
SMILES: CCOC(=O)C(=NC1CCS(=O)(=O)C1)NNc1cc(Cl)ccc1Cl (stereo unspecified)

IC50 (Protein skinhead-1): > 100 µM (inactive)
SMILES: CCc1c(C)nc2cc(-c3ccccc3)nn2c1O

IC50 [2]: > 20 µM (inactive)
SMILES: COc1ccccc1NS(=O)(=O)c1cccc(C(=O)NNC(=O)c2ccc(Cl)nc2)c1

IC50 [3]: 4.79 µM (active)
SMILES: CCOC(=O)Cc1csc(NS(=O)(=O)c2ccc3c4c(cccc24)C(=O)N3CC)n1

IC50 (Protein skinhead-1): > 100 µM (inactive)
SMILES: O=C(CCN1CCN(S(=O)(=O)c2ccc(Cl)cc2)CC1)Nc1ccc(F)cc1

IC50 [3]: 7.09 µM (active)
SMILES: O=C(Nc1ccccc1C(=O)NCCCN1CCOCC1)c1ccc(F)cc1

IC50 [2]: > 20 µM (inactive)
SMILES: CN(C)S(=O)(=O)c1cccc(COc2ncnc3c(Cl)cc(Cl)cc23)c1

IC50 [3]: 15.1 µM (active)
SMILES: CCOc1ccc(/C=C2\SC(=S)N(NC(=O)c3ccncc3)C2=O)cc1OC

IC50 [3]: 13.8 µM (active)
SMILES: Cc1ccc2c(c1)N(CCCC(=O)NCC1COc3ccccc3O1)C(=O)CO2 (stereo unspecified)

IC50 [3]: 12.3 µM (active)
SMILES: C/C=C(\C)CN1CCC(Oc2cccc(C(=O)NCc3ccccn3)c2)CC1

IC50 [2]: > 20 µM (inactive)
SMILES: COc1ccccc1NC(=O)CSc1nc2ccccc2n1C(C)=O

IC50 [2]: > 20 µM (inactive)
SMILES: NC(=S)N=Nc1c(O)n(CCCl)c2ccc(Cl)cc12

IC50 (Protein skinhead-1): > 100 µM (inactive)
SMILES: O=C(O)c1ccc2ccc3ccccc3c2c1

EC50 [4]: > 195 µM (not active)
IC50 [3]: 13.8 µM (active)
SMILES: O=C(Nc1ccc(S(=O)(=O)N2CCOCC2)cc1)c1ccc(Cl)cc1Cl

IC50 [2]: > 20 µM (inactive)
SMILES: CCOc1ccccc1NC(=O)COc1cccnc1[N+](=O)[O-]

IC50 [2]: > 20 µM (inactive)
SMILES: O=C(COC(=O)CCCCCNC1=NS(=O)(=O)c2ccccc21)Nc1ccc(Cl)c(Cl)c1

IC50 [2]: > 20 µM (inactive)
SMILES: COc1cccc(-c2nn(C)c3sc(C(=O)NCCCN(C)Cc4ccccc4)cc23)c1

Second part, the compound before the results:

SMILES: CCOc1ccc(-c2nc(-c3cccnc3)no2)cc1
IC50 (Protein skinhead-1): 22.6 µM (active)

SMILES: COc1ccc(S(=O)(=O)Nc2ccc3c(c2)C(=O)N([C@H](C)CO)C[C@H](C)[C@@H](CN(C)Cc2ccc(-c4ccccc4)cc2)O3)cc1
AC50 [1]: 3.32 µM (active)

SMILES: COc1ccc(S(=O)(=O)N(C)C[C@@H]2Oc3c(NC(=O)c4nc5ccccc5s4)cccc3C(=O)N([C@H](C)CO)C[C@@H]2C)cc1
AC50 [1]: 1.17 µM (active)

SMILES: C[C@@H]1CCCCO[C@H](CN(C)C(=O)NC2CCCCC2)[C@@H](C)CN([C@H](C)CO)C(=O)c2cc(NC(=O)Nc3ccc(C(F)(F)F)cc3)ccc2O1
AC50 [1]: 4.85 µM (active)

SMILES: C[C@@H]1CN([C@H](C)CO)C(=O)Cc2cc(NC(=O)Nc3ccc(C(F)(F)F)cc3)ccc2O[C@@H]1CN(C)Cc1ccc(-c2ccccc2)cc1
AC50 [1]: 3.22 µM (active)

SMILES: C[C@H]1CN([C@@H](C)CO)C(=O)c2cccc(NC(=O)c3ccc(-c4nccs4)cc3)c2O[C@@H]1CN(C)Cc1ccc(-c2ccccc2)cc1
AC50 [1]: 2.93 µM (active)

SMILES: C[C@@H]1CN([C@H](C)CO)C(=O)Cc2cc(NC(=O)Nc3ccc(F)cc3)ccc2O[C@@H]1CN(C)Cc1ccc(Oc2ccccc2)cc1
AC50 [1]: 2.71 µM (active)

SMILES: C[C@H]1CN([C@@H](C)CO)C(=O)c2cccc(NC(=O)C3CCCCC3)c2O[C@H]1CN(C)Cc1ccc(C(=O)Nc2ccccc2N)cc1
AC50 [1]: 3.38 µM (active)

SMILES: C[C@@H]1CN([C@H](C)CO)C(=O)Cc2cc(NS(=O)(=O)c3ccccc3)ccc2O[C@@H]1CN(C)Cc1ccc(C(=O)Nc2ccccc2N)cc1
AC50 [1]: 3.75 µM (active)

SMILES: C[C@@H]1CCCCO[C@@H](CN(C)Cc2ccc(C(F)(F)F)cc2)[C@@H](C)CN([C@H](C)CO)C(=O)c2cc(NC(=O)C3CCCCC3)ccc2O1
AC50 [1]: 6.38 µM (active)

SMILES: Cc1ccc(C(=O)N[C@@H](C)CN2C3=NC[C@H](Cc4ccccc4)N3C[C@H]2Cc2ccc(O)cc2)cc1Br
IC50 [2]: > 20 µM (inactive)

SMILES: C[C@@H]1CCCCO[C@@H](CN(C)CC2CCCCC2)[C@@H](C)CN([C@H](C)CO)C(=O)c2cc(NC(=O)Nc3ccc4c(c3)OCO4)ccc2O1
AC50 [1]: 0.75 µM (active)

SMILES: C[C@@H]1CN([C@@H](C)CO)C(=O)c2cccc(NS(=O)(=O)c3ccc(F)cc3)c2O[C@@H]1CN(C)Cc1ccc(Oc2ccccc2)cc1
AC50 [1]: 7.95 µM (active)

SMILES: CCCCNc1cccc2c1S(=O)(=O)N(CCCC)CC(COCc1ccccc1)O2 (stereo unspecified)
AC50 [5]: 8.93 µM (active)
AC50 [6]: 31.7 µM (active)

SMILES: CCN(CC)c1ccc(C2NC(=O)c3ccccc3N2)cc1 (stereo unspecified)
IC50 (Protein skinhead-1): > 100 µM (inactive)
